Data set [1] concerns HIV-1, IIIB strain. In words: Inhibition of HIV-1-induced cytopathicity in acutely infected MT-4 cells (MTT method). The following applies: Human immunodeficiency virus 1, IIIB, MT4, 96 h, 4-day incubation, read-out: 50% effective concentration value (EC50). The class given is cell-based. How it is done: Several of the compounds disclosed herein were tested for their ability to inhibit HIV cell multiplication. The compounds were solubilized in dimethyl sulfoxide at 200 mM and then diluted into culture medium. MT-4, C8166, H9/IIIB cells were grown at 37° C. in a 5% CO2 atmosphere in RPMI 1640 medium, supplemented with 10% fetal calf serum (FCS), 100 IU/mL penicillin G and 100 μg/mL streptomycin. Cell cultures were checked periodically for the absence of mycoplasma contamination with a MycoTect Kit (Gibco). Human immunodeficiency viruses type-1 (HIV-1, IIIB strain) were obtained from supernatants of persistently infected H9/IIIB. HIV-1 stock solutions had titres of 4.5×10^6 50% cell culture infectious dose (CCID50)/mL. Titration of HIV-1 was performed in C8166 cells by the standard limiting dilution method (dilution 1:2, four replica wells/dilution) in 96-well plates. The infectious virus titer was determined by light microscope scoring of cytopathicity after 4 days of incubation and the virus titers were expressed as CCID50/mL.
Activity of the compounds against HIV-1 multiplication in acutely infected cells was based on the inhibition of virus-induced cytopathicity in MT-4 cells. Briefly, 50 μL of culture medium containing 1×10^4 cells were added to each well of flat-bottom microtiter trays containing 50 μL of culture medium with or without various concentrations of the test compounds. Then 20 μL of an HIV-1 suspension containing 100 CCID50 was added. After a 4-day incubation at 37° C., the number of viable cells was determined by the 3-(4,5-dimethylthiazol-[…])-2,5-diphenyltetrazolium bromide (MTT) method (Pauwels, R.; Balzarini, J.; Baba, M.; Snoeck, R.; Schols, D.; Herdewijn, P.; Desmyster, J.; De Clercq, E. J. Virol. Methods 1988, 20, 309-321). Cytotoxicity of the compounds was evaluated in parallel with their antiviral activity, and was based on the viability of mock-infected cells, as monitored by the MTT method.
For orientation: Cytopathic effects are the visible damage that an infection or toxin causes in cultured cells.

For orientation: melting point means the temperature of the solid-liquid transition.

For `CCOC(=O)C(=O)CC(=O)c1cn(Cc2ccc(F)cc2)c2ccccc2c1=O` [RDS1624, 4-[1-(4-fluorophenyl)methyl-1,4-dihydro-4-oxoquinolin-3-yl]-2,4-dioxobutanoic acid ethyl ester], in data set [1], the EC50 amounted to 3.5 µM.

The compound `O=C(O)C(=O)CC(=O)c1cn(Cc2ccc(F)cc2)c2ccccc2c1=O` [RDS1625, 4-[1-(4-fluorophenyl)methyl-1,4-dihydro-4-oxoquinolin-3-yl]-2,4-dioxobutanoic acid] returned a melting point of 207 to 209 °C. Besides, the EC50 in data set [1] worked out at 40 µM.

With `CCOC(=O)C(=O)CC(=O)c1cn(Cc2ccc(F)cc2)c2ccc(Cl)cc2c1=O` [RDS1755], the EC50 in data set [1] amounted to 5 µM.

(Values after patent US7776883B2, “Quinolin-4-ones as inhibitors of retroviral integrase for the treatment of HIV, AIDS and AIDS related complex (ARC)” (The United States of America as represented by the …, priority 2004, dated 2010).)
